The values that follow come from PMC10250785, “Aromatic oligoesters as novel helix mimetic scaffolds” (Bioorganic & Medicinal Chemistry, 2023).

Data set [1] is described as follows: Aqueous stability of dimers in buffered pH solutions (TLC, LCMS/HPLC UV). Particulars: r.t.; for remaining at 168 h, 5 mg/mL: bicarbonate buffer pH 12.5 / acetonitrile (1:1), pH 12.5 (bicarbonate) buffer, 50% MeCN: buffer, 5 mg/mL dimer, after 7 days, from HPLC UV traces. In kind it is physicochemical. How it is done:
Human serum pH is tightly regulated around 7.4, with intracellular pH controlled between pH 6.0–7.2, and gastric pH between 1.4–3.5.[37] […] Given the prevalence of ester linkages in pro-drug structures[38] and the facile hydrolysis of esters in aqueous media, the stability of our scaffold was a concern. We therefore investigated the stability of dimers 25 and 29 over extended periods of time in aqueous solution from pH2.5–12.5. To monitor dimer stability over time, 10 mM pH buffer solutions of: 2.5(acetate), 5.0(acetate), 7.4 (phosphate-buffered saline), 10.0 (bicarbonate), and 12.5 (bicarbonate) were selected, to obtain a pH range similar to those present within the human body. Since both dimers are insoluble in water, they were firstly dissolved in acetonitrile, before addition to the buffered solutions to form a 5 mg/mL dimer solution (50% MeCN: buffer). Degradation was monitored via TLC over time, and the final solution composition was determined by LCMS after 7 days (Fig 3 and Figure S3).
Fig. 3 Dimers 25 and 29 were incubated for 7 days in a range of buffered pH solutions and % dimer remaining measured by integration of UV peaks from an HPLC Diode array trace.
To pre-prepared 100 mM pH buffer solutions (1.00 mL), including pH 2.5, 5.0, 7.4, 10.0 and 12.5 (Table 2), was added the dimer (10 mg/mL in MeCN) at r.t, forming a final solution with dimer concentration 5 mg/mL. The mixture was stirred at r.t. for 7 days and monitored via TLC and LCMS (50% MeCN) to follow ester bond degradation.

Molecules are shown by their SMILES.

In turn, `C=CCOc1ccc(C(=O)OC)cc1O` [Compound 1, Methyl 4-(allyloxy)-3-hydroxybenzoate] yielded a melting point of 67 to 68 °C.
In data set [1], `C=CCOc1ccc(C(=O)Oc2ccc(C(=O)OC)cc2OC(C)C)cc1OC(C)C` [Compound 25, 2-isopropoxy-4-(methoxycarbonyl)phenyl 4-(allyloxy)-3-isopropoxybenzoate] displayed a fraction remaining at 168 h, 5 mg/mL of 6%. Moreover, the “time before ester hydrolysis occurs” value in data set [1] (pH 12.5, 50% MeCN: buffer) is reported as greater than 5 days.
`COC(=O)c1ccc(OC(=O)c2ccc(O)c(OC)c2)c(OC)c1` [Compound 29, 2-methyoxy-4-(methoxycarbonyl)phenyl 4-hydroxy-3-methoxybenzoate] came in with a share remaining at 168 h, 5 mg/mL in data set [1] of 49%.

Usually melting point stands for the temperature of the solid-liquid transition. In general, fraction remaining refers to the share of the starting amount still present when the sample was taken. The low end stands for more turnover, the high end for less turnover.
